Laboratory results published in patent US20230047816A1 (priority 2018, published 2023).

Target: Recombinant full length human PFKFB3 (Homo sapiens, UniProt Q16875)
Assay: PFKFB3 kinase activity assay (ADP production, ADP-Glo)

Recombinant full length human PFKFB3, sequence (Q16875 whole entry): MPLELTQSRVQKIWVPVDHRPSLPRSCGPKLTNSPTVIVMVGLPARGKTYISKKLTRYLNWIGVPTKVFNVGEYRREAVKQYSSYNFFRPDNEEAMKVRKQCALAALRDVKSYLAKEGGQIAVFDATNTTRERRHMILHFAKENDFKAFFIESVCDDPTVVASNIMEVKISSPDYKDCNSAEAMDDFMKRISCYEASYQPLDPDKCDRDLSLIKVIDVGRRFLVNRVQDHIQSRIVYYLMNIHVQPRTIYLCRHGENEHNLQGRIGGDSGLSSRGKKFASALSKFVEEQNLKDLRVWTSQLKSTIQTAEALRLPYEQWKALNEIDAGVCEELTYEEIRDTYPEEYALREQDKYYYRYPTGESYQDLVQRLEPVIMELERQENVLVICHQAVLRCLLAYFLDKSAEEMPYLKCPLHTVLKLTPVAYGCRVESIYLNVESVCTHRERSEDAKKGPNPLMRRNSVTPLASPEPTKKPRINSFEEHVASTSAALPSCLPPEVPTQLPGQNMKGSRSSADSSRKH

COC(=O)c1cc(-c2ccccc2)ccc1N1C(=O)c2ccc(C(=O)NS(C)(=O)=O)cc2C1=O [Example 40] and COC(=O)c1ccc(-c2ccccc2)cc1N1C(=O)c2ccc(C(=O)NS(C)(=O)=O)cc2C1=O [Example 41] cannot be ordered by IC50: less than 20000 nM for the first, less than 20000 nM for the second.

CS(C)(=O)=NC(=O)c1ccc(C(=O)Nc2cc(-c3ccc(F)c(F)c3)ccc2C(=O)O)c(C(=O)O)c1 [Example 41, 3-(2-carboxy-4-{[methyl(methylidene)oxo-λ^6-sulfanyl]carbamoyl}benzamido)-3′,4′-difluoro-[1,1′-biphenyl]-4-carboxylic acid] and O=C(O)c1cc(C(=O)O)c(C(=O)Nc2cc(-c3ccc(F)c(F)c3)ccc2C(=O)O)cc1Cl [Example 45, 4-({4-carboxy-3′,4′-difluoro-[1,1′-biphenyl]-3-yl}carbamoyl)-6-chlorobenzene-1,3-dicarboxylic acid] cannot be ordered by IC50: less than 500 nM for the first, less than 500 nM for the second.

First: CN(C)C(=O)c1cc(O)c(C(=O)N=S(C)(C)=O)cc1C(=O)Nc1cc(-c2ccc(Cl)cc2Cl)ccc1C(=O)O [Example 42, 2′,4′-dichloro-3-(5-((dimethyl(oxo)-λ^6-sulfanylidene)carbamoyl)-2-(dimethylcarbamoyl)-4-hydroxybenzamido)-[1,1′-biphenyl]-4-carboxylic acid]
Second: O=C(O)c1cc(C(=O)O)c(C(=O)Nc2cc(-c3ccc(Cl)cc3Cl)ccc2C(=O)O)cc1O [Example 43, 4-({4-carboxy-2′,4′-dichloro-[1,1′-biphenyl]-3-yl}carbamoyl)-6-hydroxybenzene-1,3-dicarboxylic acid]
The IC50 of the first is higher: 2000 to 5000 nM for the first, less than 500 nM for the second.

First: COC(=O)c1cc(-c2ccccc2)c(OC)cc1N1C(=O)c2ccc(C(=O)O)cc2C1=O [Example 42]
Second: O=C(O)c1ccc2c(c1)C(=O)N(c1cc(-c3cccc(F)c3)ccc1C(=O)O)C2=O [Example 46]
The IC50 of the first is higher: 500 to 2000 nM for the first, less than 500 nM for the second. The second is the more potent here.

First: O=C(O)c1ccc2c(c1)C(=O)N(c1cc(-c3ccccc3)ccc1-c1nnn[nH]1)C2=O [Example 43]
Second: COC(=O)c1ccc(-c2ccccc2)cc1N1C(=O)c2ccc(-c3nnn[nH]3)cc2C1=O [Example 44]
The IC50 of the first is lower: 500 to 2000 nM for the first, 2000 to 5000 nM for the second. The first is the more potent here.

O=C(O)c1cc(C(=O)Nc2cc(-c3ccc(Cl)cc3Cl)ccc2C(=O)O)c(C(=O)O)cc1O [Example 44, 2-({4-carboxy-2′,4′-dichloro-[1,1′-biphenyl]-3-yl}carbamoyl)-5-hydroxybenzene-1,4-dicarboxylic acid] and O=C(O)c1cc(C(=O)O)c(C(=O)Nc2cc(-c3ccc(Cl)cc3Cl)ccc2C(=O)O)cc1F [Example 59, 4-({4-carboxy-2′,4′-dichloro-[1,1′-biphenyl]-3-yl}carbamoyl)-6-fluorobenzene-1,3-dicarboxylic acid] cannot be ordered by IC50: less than 500 nM for the first, less than 500 nM for the second.

O=C(O)c1ccc2c(c1)C(=O)N(c1cc(-c3ccc(F)cc3)ccc1C(=O)O)C2=O [Example 45] and COc1ccc(-c2ccc(C(=O)O)c(N3C(=O)c4ccc(C(=O)O)cc4C3=O)c2)cc1 [Example 55] cannot be ordered by IC50: less than 500 nM for the first, less than 500 nM for the second.

O=C(O)c1cc(C(=O)Nc2cc(-c3ccc(F)c(F)c3)ccc2C(=O)O)c(C(=O)O)cc1Cl [Example 46, 2-({4-carboxy-3′,4′-difluoro-[1,1′-biphenyl]-3-yl}carbamoyl)-5-chlorobenzene-1,4-dicarboxylic acid] and CCOC(=O)c1ccc(-c2ccc(Cl)cc2Cl)cc1NC(=O)c1cc(O)c(C(=O)O)cc1C(=O)O [Example 55, 4-{[2′,4′-dichloro-4-(ethoxycarbonyl)-[1,1′-biphenyl]-3-yl]carbamoyl}-6-hydroxybenzene-1,3-dicarboxylic acid] cannot be ordered by IC50: less than 500 nM for the first, less than 500 nM for the second.

First: COc1ccc(-c2nnn[nH]2)c(N2C(=O)c3ccc(C(=O)O)cc3C2=O)c1 [Example 47, 2-[5-Methoxy-2-(1H-tetrazol-5-yl)phenyl]-1,3-dioxo-2,3-dihydro-1H-isoindole-5-carboxylic acid]
Second: O=C1c2ccc(-c3c[nH]nn3)cc2C(=O)N1c1cc(-c2ccccc2)ccc1-c1nnn[nH]1 [Example 54]
The IC50 of the first is lower: 500 to 2000 nM for the first, 2000 to 5000 nM for the second.

O=C(O)c1ccc2c(c1)C(=O)N(c1cc(-c3cccs3)ccc1C(=O)O)C2=O [Example 48, 2-(2-Carboxy-5-thiophen-2-yl-phenyl)-1,3-dioxo-2,3-dihydro-1H-isoindole-5-carboxylic Acid] and O=C(O)c1ccc2c(c1)C(=O)N(c1cc(-c3cccnc3)ccc1C(=O)O)C2=O [Example 52] cannot be ordered by IC50: less than 500 nM for the first, less than 500 nM for the second.

CN(C)CCOC(=O)c1ccc(-c2ccc(Cl)cc2Cl)cc1NC(=O)c1ccc(C(=O)N=S(C)(C)=O)cc1C(=O)O [Example 49, 2-[(2′,4′-dichloro-4-{[2-(dimethylamino)ethoxy]carbonyl}-[1,1′-biphenyl]-3-yl)carbamoyl]-5-{[dimethyl(oxo)-λ^6-sulfanylidene]carbamoyl}benzoic acid] and CN(C)CCCOC(=O)c1ccc(-c2ccc(Cl)cc2Cl)cc1NC(=O)c1cc(O)c(C(=O)O)cc1C(=O)O [Example 51, 4-[(2′,4′-dichloro-4-{[3-(dimethylamino)propoxy]carbonyl}-[1,1′-biphenyl]-3-yl)carbamoyl]-6-hydroxybenzene-1,3-dicarboxylic acid] cannot be ordered by IC50: less than 500 nM for the first, less than 500 nM for the second.

First: O=C(O)c1ccc(-c2cccnc2)cc1N1C(=O)c2ccc(-c3c[nH]nn3)cc2C1=O [Example 49]
Second: O=C(O)c1ccc(-c2ccccc2)cc1N1C(=O)c2ccc(-c3c[nH]nn3)cc2C1=O [Example 59]
The IC50 of the first is higher: 2000 to 5000 nM for the first, less than 500 nM for the second.

First: O=C(O)c1ccc(-c2ccc(F)cc2F)cc1N1C(=O)c2ccc(-c3c[nH]nn3)cc2C1=O [Example 51]
Second: O=C(O)c1ccc(-c2ccc(F)cc2)cc1N1C(=O)c2ccc(-c3c[nH]nn3)cc2C1=O [Example 57]
The IC50 of the first is lower: less than 500 nM for the first, 2000 to 5000 nM for the second. The first is the more potent here.

CC1(C)CCC(c2ccc(C(=O)O)c(NC(=O)c3cc(O)c(C(=O)O)cc3C(=O)O)c2)CC1 [Example 52, 4-{[2-carboxy-5-(4,4-dimethylcyclohexyl)phenyl]carbamoyl}-6-hydroxybenzene-1,3-dicarboxylic acid] and CC1(C)CCC(c2ccc(C(=O)O)c(NC(=O)c3cc(C(=O)O)c(O)cc3C(=O)O)c2)CC1 [Example 57, 2-{[2-carboxy-5-(4,4-dimethylcyclohexyl)phenyl]carbamoyl}-5-hydroxybenzene-1,4-dicarboxylic acid] cannot be ordered by IC50: less than 500 nM for the first, less than 500 nM for the second.

CC1(C)CCN(c2ccc(C(=O)O)c(NC(=O)c3cc(O)c(C(=O)O)cc3C(=O)O)c2)CC1 [Example 53, 4-{[2-carboxy-5-(4,4-dimethylpiperidin-1-yl)phenyl]carbamoyl}-6-hydroxybenzene-1,3-dicarboxylic acid] and CC1(C)CCN(c2ccc(C(=O)O)c(NC(=O)c3cc(C(=O)O)c(O)cc3C(=O)O)c2)CC1 [Example 56, 2-{[2-carboxy-5-(4,4-dimethylpiperidin-1-yl)phenyl]carbamoyl}-5-hydroxybenzene-1,4-dicarboxylic acid] cannot be ordered by IC50: less than 500 nM for the first, less than 500 nM for the second.

First: O=C(O)c1ccc2c(c1)C(=O)N(c1cc(-c3ccc(F)cc3F)ccc1C(=O)O)C2=O [Example 53]
Second: O=C(O)c1ccc(-c2cccs2)cc1N1C(=O)c2ccc(-c3c[nH]nn3)cc2C1=O [Example 56]
The IC50 of the first is lower: less than 500 nM for the first, 2000 to 5000 nM for the second.

CN(C)CCCOC(=O)c1ccc(-c2ccc(Cl)cc2Cl)cc1NC(=O)c1cc(C(=O)O)c(O)cc1C(=O)O [Example 54, 2-[(2′,4′-dichloro-4-{[3-(dimethylamino)propoxy]carbonyl}-[1,1′-biphenyl]-3-yl)carbamoyl]-5-hydroxybenzene-1,4-dicarboxylic acid] and CCOC(=O)c1ccc(-c2ccc(Cl)cc2Cl)cc1NC(=O)c1cc(C(=O)O)c(O)cc1C(=O)O [Example 60, 2-{[2′,4′-dichloro-4-(ethoxycarbonyl)-[1,1′-biphenyl]-3-yl]carbamoyl}-5-hydroxybenzene-1,4-dicarboxylic acid] cannot be ordered by IC50: less than 500 nM for the first, less than 500 nM for the second.

O=C(O)c1cc(C(=O)O)c(C(=O)Nc2cc(N3CC4CCC3C4)ccc2C(=O)O)cc1O (stereo not drawn) [Example 58, 4-[(5-{2-azabicyclo[2.2.1]heptan-2-yl}-2-carboxyphenyl)carbamoyl]-6-hydroxybenzene-1,3-dicarboxylic acid] and O=C(O)c1cc(C(=O)Nc2cc(N3CC4CCC3C4)ccc2C(=O)O)c(C(=O)O)cc1O (stereo not drawn) [Example 61, 2-[(5-{2-azabicyclo[2.2.1]heptan-2-yl}-2-carboxyphenyl)carbamoyl]-5-hydroxybenzene-1,4-dicarboxylic acid] cannot be ordered by IC50: less than 500 nM for the first, less than 500 nM for the second.

Compared with O=C(O)c1cc(-c2c[nH]cn2)ccc1N1C(=O)c2ccc(-c3c[nH]nn3)cc2C1=O [Example 60], O=C(O)c1cc(-c2cnccn2)ccc1N1C(=O)c2ccc(-c3c[nH]nn3)cc2C1=O [Example 63] is higher in IC50: less than 500 nM for the first, 5000 to 20000 nM for the second.

Cn1cncc1-c1ccc(N2C(=O)c3ccc(-c4c[nH]nn4)cc3C2=O)c(C(=O)O)c1 [Example 61] and O=C(O)c1cc(-c2cncnc2)ccc1N1C(=O)c2ccc(-c3c[nH]nn3)cc2C1=O [Example 64] cannot be ordered by IC50: 5000 to 20000 nM for the first, less than 20000 nM for the second.

CC1(C)CCC(c2ccc(C(=O)O)c(NC(=O)c3cc(F)c(C(=O)O)cc3C(=O)O)c2)CC1 [Example 63, 4-{[2-carboxy-5-(4,4-dimethylcyclohexyl)phenyl]carbamoyl}-6-fluorobenzene-1,3-dicarboxylic acid] and CC1(C)CCC(c2ccc(C(=O)O)c(NC(=O)c3cc(C(=O)O)c(F)cc3C(=O)O)c2)CC1 [Example 64, 2-{[2-carboxy-5-(4,4-dimethylcyclohexyl)phenyl]carbamoyl}-5-fluorobenzene-1,4-dicarboxylic acid] cannot be ordered by IC50: less than 500 nM for the first, less than 500 nM for the second.

CC(CN(C)C)OC(=O)c1ccc(-c2ccc(Cl)cc2Cl)cc1NC(=O)c1cc(O)c(C(=O)O)cc1C(=O)O (stereo not drawn) [Example 65, 4-{[2′,4′-dichloro-4-({[1-(dimethylamino)propan-2-yl]oxy}carbonyl)-[1,1′-biphenyl]-3-yl]carbamoyl}-6-hydroxybenzene-1,3-dicarboxylic acid] and CC(COC(=O)c1ccc(-c2ccc(Cl)cc2Cl)cc1NC(=O)c1cc(O)c(C(=O)O)cc1C(=O)O)N(C)C (stereo not drawn) [Example 66, 4-[(2′,4′-dichloro-4-{[2-(dimethylamino)propoxy]carbonyl}-[1,1′-biphenyl]-3-yl)carbamoyl]-6-hydroxybenzene-1,3-dicarboxylic acid] cannot be ordered by IC50: less than 500 nM for the first, less than 500 nM for the second.

Nc1ccc(-c2ccc(N3C(=O)c4ccc(-c5c[nH]nn5)cc4C3=O)c(C(=O)O)c2)cn1 [Example 65] was tested, and the IC50 was 2000 to 5000 nM.
